Source: patent US8137718B2, “Probiotic infant products” (Mead Johnson Nutrition Company, priority 2008, dated 2012)

Test system: B. longum AH1205
Assay: Minimum inhibitory concentration (MIC) of antibiotics for the B. longum strain
Format: cell-based, Bifidobacterium longum
Settings: against the B. longum strain AH1205
Description: Antibiotic sensitivity profiles of the B. longum strain were determined using the “disc susceptibility” assay. Cultures were grown in the appropriate broth medium for 24-48 hours, spread-plated (100 μl) onto agar media, and discs containing known concentrations of the antibiotics were placed onto the agar. Strains were examined for antibiotic sensitivity after 1-2 days incubation at 37° C. under anaerobic conditions. Strains were considered sensitive if zones of inhibition of 1 mm or greater were seen. The minimum inhibitory concentration (MIC) for each antibiotic was independently assessed.

| minimum inhibitory concentration (MIC) | SMILES |
| --- | --- |
| 0.032 | CCC[C@@H]1C[C@@H](C(=O)N[C@@H]([C@H]2O[C@H](SC)[C@H](O)[C@@H](O)[C@H]2O)[C@H](C)Cl)N(C)C1 [clindamycin] |
| > 256 | Cc1ncc([N+](=O)[O-])n1CCO [metronidazole] |

| SMILES | minimum inhibitory concentration (MIC) |
| --- | --- |
| CN[C@H](CC(C)C)C(=O)N[C@H]1C(=O)N[C@@H](CC(N)=O)C(=O)N[C@H]2C(=O)N[C@H]3C(=O)N[C@H](C(=O)N[C@H](C(=O)O)c4cc(O)cc(O)c4-c4cc3ccc4O)[C@H](O)c3ccc(c(Cl)c3)Oc3cc2cc(c3O[C@@H]2O[C@H](CO)[C@@H](O)[C@H](O)[C@H]2O[C@H]2C[C@](C)(N)[C@H](O)[C@H](C)O2)Oc2ccc(cc2Cl)[C@H]1O [vancomycin] | 0.75 |
